The test system of test [1] is vector-transformed E. coli JA202. The experiment in a line: Uptake of radioligands into vector-transformed bacteria. It counts as cell-based. Here is the method: The cultures were grown at 37 °C and 180 r.p.m. in an incubator shaker (Multitron, Infors HT). Protein expression was induced at OD600 ~0.5 by addition of IPTG to a final concentration of 0.25 mM. After 4 h, bacteria were pelleted (5,200 × g, 10 min, room temperature) and resuspended in uptake buffer (20 mM Bis-Tris propane-HCl (pH 6.7), 250 mM KCl) to a bacteria density of OD600 12. […] Furthermore, [3-3 H] propionic acid sodium salt ([^3H]propionate, American Radiolabeled Chemicals, specific activity 30 Ci/mmol), n-[2,3-3 H] butyric acid sodium salt ([^3H]butyrate, American Radiolabeled Chemicals, specific activity 120 Ci/mmol), and [1–14 C] pyruvic acid sodium salt ([^14C]pyruvate, specific activity 0.055 Ci/mmol American Radiolabeled Chemicals) were also used for transport experiments. […] Uptake experiments were performed in 2 ml reaction tubes (Eppendorf) at 30 °C under agitation (1,000 r.p.m., Thermomixer compact, Eppendorf). […] Bacteria were immediately pelleted by centrifugation (21,000 × g, 4 min, room temperature) and washed two times with 900 μl stop buffer. Finally, bacteria were lyzed in 50 μl 5% (w/v) sodium dodecylsulfate and transferred into a white 96-well plate (Optiplate, PerkinElmer). 150 µl of scintillation cocktail (MicroScint 40, PerkinElmer) were added before measuring each reaction for 2 min with a scintillation counter (TopCount NXT, PerkinElmer). For data analysis, the signal of the empty vector was subtracted from the transporter signal. […] Cpm values of each experiment were normalized with respect to the determined upper plateau value, i.e., the fitted upper plateau value corresponds to 100%. The arithmetic average of three independent experiments was calculated. Three independent and normalized pH-dependence curves were then averaged. For data analysis Prism6 (GraphPad Software) was used. The expression of SfMCT variants in E. coli JA202 (MC4100 glcA::cat lldP::kan)[15] was verified by Western blotting. Equal amounts of bacteria expressing SfMCT variants were loaded on 14% SDS/polyacrylamide gels. His-tagged transporters were detected using an anti-His5 (Qiagen, catalogue number 34660, primary antibody) at a dilution of 1:3,000 and a goat anti-mouse IgG (H + L) HRP conjugate antibody (Biorad, catalogue number 172-1011, secondary antibody) at a dilution of 1:2,500.

A further test concerns the target T1, SfMCT R256D (Syntrophobacter fumaroxidans, UniProt A0LNN5, R256D).
T1 construct: expressed in transfected cells; host or cells: E. coli JA202 (MC4100 glcA::cat lldP::kan), plasmid pEXT20-SfMCT-3C-10His
The experiment in a line: [14C]L-lactate in vivo uptake assay, mutant R256D. It counts as cell-based. To be noted: R256D versus WT. Here is the method: The cultures were grown at 37 °C and 180 r.p.m. in an incubator shaker (Multitron, Infors HT). Protein expression was induced at OD600 ~0.5 by addition of IPTG to a final concentration of 0.25 mM. After 4 h, bacteria were pelleted (5,200 × g, 10 min, room temperature) and resuspended in uptake buffer (20 mM Bis-Tris propane-HCl (pH 6.7), 250 mM KCl) to a bacteria density of OD600 12. […] Furthermore, [3-3 H] propionic acid sodium salt ([^3H]propionate, American Radiolabeled Chemicals, specific activity 30 Ci/mmol), n-[2,3-3 H] butyric acid sodium salt ([^3H]butyrate, American Radiolabeled Chemicals, specific activity 120 Ci/mmol), and [1–14 C] pyruvic acid sodium salt ([^14C]pyruvate, specific activity 0.055 Ci/mmol American Radiolabeled Chemicals) were also used for transport experiments. […] Cpm values of each experiment were normalized with respect to the determined upper plateau value, i.e., the fitted upper plateau value corresponds to 100%. The arithmetic average of three independent experiments was calculated. […] His-tagged transporters were detected using an anti-His5 (Qiagen, catalogue number 34660, primary antibody) at a dilution of 1:3,000 and a goat anti-mouse IgG (H + L) HRP conjugate antibody (Biorad, catalogue number 172-1011, secondary antibody) at a dilution of 1:2,500.

The next test relates to MCT4 (SLC16A3). The settings on record: MCT4, L-lactate; cited from earlier work.

The source of these data is paper PMC6573034 (Nature Communications, 2019).

T1 sequence (A0LNN5 whole entry R256D): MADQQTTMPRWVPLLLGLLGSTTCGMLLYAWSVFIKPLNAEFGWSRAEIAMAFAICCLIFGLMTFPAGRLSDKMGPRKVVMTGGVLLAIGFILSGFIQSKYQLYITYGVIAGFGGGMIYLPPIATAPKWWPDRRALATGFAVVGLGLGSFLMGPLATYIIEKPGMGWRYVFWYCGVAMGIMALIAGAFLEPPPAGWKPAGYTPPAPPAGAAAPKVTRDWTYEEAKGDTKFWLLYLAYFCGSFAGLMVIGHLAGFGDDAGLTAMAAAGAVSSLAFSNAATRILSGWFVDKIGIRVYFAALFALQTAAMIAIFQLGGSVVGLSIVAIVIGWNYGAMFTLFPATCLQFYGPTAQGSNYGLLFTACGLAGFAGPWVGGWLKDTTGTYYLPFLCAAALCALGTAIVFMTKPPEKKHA

With `C[C@H](O)C(=O)O` [L-lactate], in test [1] (0.1 µCi radiolabeled monocarboxylate, vector-transformed bacteria), the “Uptake of radioligand by vector (cpm)” value amounted to 1768.33 cpm. Moreover, the “Uptake of [14C]L-lactate by vector (cpm)” value in test [1] (Time 5 min) amounted to 384.333 cpm; in test [1] (Time 10 min), 605.333 cpm; in test [1] (Time 20 min), 1203 cpm; in test [1] (Time 30 min), 1731 cpm; in test [1] (Time 40 min), 2474 cpm; in test [1] (Time 50 min), 3128.67 cpm. Further, the figures for the “Uptake of [14C]L-lactate by vector (cpm)” value in test [1] (Time 60 min), in test [1] (Time 75 min) and in test [1] (Time 90 min) were 3938.67 cpm, 5158 cpm and 7311.67 cpm, respectively. In addition, on SfMCT R256D, the “increase of [14C]L-lactate transport” value is on record as ~ 2.5 fold. Further, the Km in the test on MCT4 (SLC16A3) was 20 to 35 mM.
